# Patent US8618114B2 (priority 2008, dated 2013)
# What was measured:
# male mice of BALB/c line [1] = test: Passive avoidance in the shuttle chamber, Scopolamine amnesia model, mice; assay type: in vivo, mouse; conditions: compounds injected 30 minutes before the test, read 24 hours after training, FIG. 4-6
# Protocol: (§1) 14.1.1. Passive Avoidance of mice in the Shuttle Chamber. The experiments were carried out in aged male mice of BALB/c line weighing 20-24 g or male rats weighing 200-250 g.
# (§2) A shuttle chamber (Ugo Basile, Italy) that consisted of two sections was used. One section was white and lightened, the other one was dark. The sections were connected through a hole which could be overlapped by automatic vertical door. The floor of the dark section was made of transverse metal bars on which DC current impulses could be fed.
# (§3) On the first day of testing 30 minutes before training the animals were injected intraperitoneally with Scopolamine which causes disturbance of training (memory loss). The animals of the trial group were additionally administered with one of the tested compounds. The animals of the control group were injected with physiological solution. Each group consisted of 8 animals. The animals were placed in the light section, and latent period of the first entry into the dark chamber was registered. Then vertical door was closed and the animal was punished by 0.6 mA DC current for 3 seconds. After that the animal was taken back to its home cage. […]
# mice = test: Passive avoidance in the shuttle chamber, amnesia caused by MK-801, mice; assay type: in vivo, mouse; conditions: MK-801 0.1 mg/kg i.p., compounds injected 30 minutes before the test, FIG. 11-13
# Protocol: as §2
# On the first day of testing 30 minutes before training the animals were injected intraperitoneally with Scopolamine which causes disturbance of training (memory loss). The animals of the trial group were additionally administered with one of the tested compounds. The animals of the control group were injected with physiological solution. Each group consisted of 8 animals. The animals were placed in the light section, and latent period of the first entry into the dark chamber was registered. Then vertical door was closed and the animal was punished by 0.6 mA DC current for 3 seconds. After that the animal was taken back to its home cage. In 22-24 hours the same animal was placed again in the light section of the shuttle chamber and latent period of its first entry into the dark section, the total time of its stay in the light section and the number of entries into the dark section were registered. Each monitoring lasted for 5 minutes.
# 14.2.1. Passive Avoidance of mice in the Shuttle Chamber. The test was carried out as in example 14.1.1. […]
# 5-HT6 receptor [2] = target: T1, 5-HT6 receptor (Homo sapiens (Human), UniProt P50406); test: functional assay for serotonin 5-HT6 receptor inhibition (serotonin-induced intracellular cAMP, LANCE cAMP kit, HEK 293 cells); assay type: cell-based; conditions: HEK 293 cells with expressed 5-HT6 receptor; reduction of serotonin-induced intracellular cAMP
# Protocol: Determination of antagonistic activity of compounds of the general formula 1 towards 5-HT6 receptors. Compounds of the general formula 1 were tested for their ability to prevent 5-HT6 receptors activation by serotonin. HEK 293 cells (cells of human embryo's kidney) with artificially expressed 5-HT6 receptor, activation of which by serotonin leads to increasing the concentration of intracellular cAMP, were used. The level of intracellular cAMP was determined using reagent kit LANCE cAMP (PerkinElmer) according to the method described by the manufacturer of the kit [http://las.perkinelmer.com/content/Manuals/MAN_LANCEcAMP384KitUser.pdf]. Effectiveness of the compounds was estimated by their ability to reduce the level of intracellular cAMP induced by serotonin. Table 4 presents IC50 values for the compounds of general formula 1 in the setting of functional assay for serotonin 5-HT6 receptor inhibition. The data given testify their moderate or high antagonistic activity.
# male rats = test: Passive avoidance in the shuttle chamber, Scopolamine amnesia model, rats; assay type: in vivo, rat; conditions: compounds injected 60 minutes before the test, read 24 hours after training, FIG. 1-3
# Protocol: as §1, §2, §3
# male mice of SHK line = test: Novel object recognition test, Scopolamine amnesia model; assay type: in vivo, mouse; conditions: Scopolamine 1 mg/kg i.p.; compounds i.p. 60 minutes before training; FIG. 7
# Protocol: 14.1.2. Novel object recognition test. The test was carried out in aged male mice of SHK line. […] A mouse was placed into the central chamber and allowed to explore the maze. The floor was cleaned after each animal. The sequence of chamber entries and duration of visits were registered by the observer. The test was ended after 13 entries into the dead-end chambers. Criterion for entry was a location of all animal's paws inside the chamber at the same time.
# During the training the animal was placed in the maze with one equiform bowl in each side chamber. In the course of testing (one hour after training) two opposite standing bowls were replaced by identical flasks, and the animal was allowed to explore the maze. The time spent by the animal in each side chamber was registered during the periods of training and testing. Index of novel object recognition was calculated as the ratio of time spent by the animal in the side chambers with novel objects to the total time spent by it in all side chambers.
# rats = test: Passive avoidance in the shuttle chamber, amnesia caused by MK-801, rats; assay type: in vivo, rat; conditions: MK-801 0.1 mg/kg i.p., compounds injected 60 minutes before the test, FIG. 8-10
# Mice of SHK line = test: Prepulse inhibition of the startle response in mice (Apomorphine model); assay type: in vivo, mouse; conditions: 1 mg/kg i.p. 60 minutes before the test; FIG. 17
# Protocol: Mice of SHK line weighing about 24-30 g were used in the test. The experiments were carried out during the light period of animal's diurnal. Apomorphine hydrochloride and Haloperidol were received from Sigma Chemicals Company, (USA). Apomorphine hydrochloride was dissolved in 0.1% solution of ascorbic acid prepared with sterilized water; it was introduced subcutaneously 15 minutes before the test. Haloperidol was dissolved in sterilized water using emulsifier Twin 80, it was introduced intraperitoneally 60 minutes before the test. Compounds 1.2.22(1), 1.2.22(18), 1.2.7(1) were dissolved in sterilized water and introduced intraperitoneally 60 minutes before the test. The injection volume was 10 ml/kg. 0.1%. Solution of ascorbic acid, prepared with sterilized water and Twin 80, was injected to control group of animals.
# The test instrument consisted of a chamber made of transparent plexiglass (manufacturer—Columbia Instruments Company, USA) and placed on the platform; the latter was lodged inside the sound insulating chamber. A high frequency sound column transmitting acoustic stimuluses was located 2 cm away from the platform. […] The level of background noise made up 65 dB. Each animal received 4 stimuli of single testing (pulse) stimulus of 50 ms duration and 105 dB or prepulsory stimulus (pre-pulse) of 20 ms duration and 85 dB, after which in 30 ms pulse stimulus of 50 ms duration and 105 dB followed. Time interval between repeated pulse or prepulse in combination with pulse stimuli made up 10 s. Inhibition of the startle in reply to prepulse-plus-pulse stimulus was calculated in percentage towards amplitude of startle in response to isolated pulse stimulus.
# male mice of BALB/c line [3] = test: Porsolt's Forced Swim Test; assay type: in vivo, mouse; conditions: i.p. for 4 days subchronically; FIG. 18
# Protocol: 17.1. Mice Behavior in Porsolt's Forced Swim Test. Expression of behavioral despair was offered to use as a model for investigation of antidepressant activity in Porsolt's test (1977, 1978). That is, the behavior of a mouse or rat in a closed basin, from which the animal can not get out, cheracterizes the level of its despair which could be reduced by means of antidepressant intake.
# Male mice of BALB/c line weighing about 20-30 g were used in the test. The animals were placed for 15 minutes in the basin (of 300 mm height, 480 mm diameter) filled with water to 70% of its volume at 25° C. In 3-5 minutes swimming activity began to decrease and change by phases of movement and immobility. […] Data for the last 5 minutes of the test were taken for the analysis. Automated computerized detection of motion with videosystem and Any-maze program were used in the test. The tested compounds 1.2.7(1) and 1.2.22(18) were injected intraperitonelly for 4 days subchronically.
# male mice of BALB/c line [4] = test: Tail suspension test; assay type: in vivo, mouse; conditions: i.p. during 4 days; FIG. 19
# From the text: 17.2. Mice behavior in tail suspension test. Tail suspension test was described by Steri et al. (1985) as a convenient method for investigation of potential antidepressants. It is supposed that forced immobility in rodents could be used as a model for investigation of depressive disorders at humans. Clinically effective antidepressants lower mice immobility which follows negative attempts to become free when their tails are fixed.
# Male mice of BALB/c line weighing about 20-30 g were used in the test. The animals were suspended by tail with a sticky tape on the holder over a horizontal surface at a height of about 40 cm, and the total duration of complete immobility episodes was registered in the course of 3 minutes. […] Automated computerized detection of motion with videosystem and Any-maze program were used in the test. The tested compounds 1.2.7(1) and 1.2.22(18) were administered intraperitoneally during 4 days. Reference substances (Fluoxetine, Desipramine) were injected intraperitoneally 15 minutes before the beginning of the test.
# 5-HT6 receptor [5] = target: T1, 5-HT6 receptor; test: competitive radioligand binding ([3H] Lysergic acid diethylamide) to serotonin 5-HT6 receptors, HeLa cell membranes; conditions: read-out: IC50, competitive assay of serotonin 5-HT6 receptor inhibition; displacement of 1.5 nM [3H] Lysergic acid diethylamide, 120 min at 37° C.
# Protocol: Determination of activity of the compounds of the general formula 1 in the setting of competitive binding to serotonin 5-HT6 receptors.
# Screening of the disclosed compounds for their potential ability to interact with serotonin 5-HT6 receptors was carried out by method of radioligand binding. For this purpose membrane species were prepared from expressing recombinant human 5-HT6 receptors HeLa cells by means of their homogenization in glass homogenizer with subsequent separation of plasmatic membranes from cell nucli, mitochondria's and cell wreckages by differential centrifugation. Determination of tested compounds binding to 5-HT6 receptors was carried out according to the method described in [Monsma F J Jr, Shen Y, Ward R P, Hamblin M W and Sibley D R, Cloning and expression of a novel serotonin receptor with high affinity for tricyclic psychotropic drugs. […] After incubation the samples were filtered in vacuo on glass-microfiber filters G/F (Millipor, USA), filters were washed three times with cold solution of the medium and radioactivity was measured by scintillation counter MicroBeta 340 (PerkinElmer, USA). Nonspecific binding which made up 30% of overall binding was determined by incubation of membrane preparations with radioligand in the presence of 5 μM Serotonin (5-HT). Methiothepin was used as positive control. Binding of the tested compounds to the receptor was determined by their ability to displace the radioligand and expressed in percent of displacement. The percent of displacement was calculated according to the following equation:
# [formula] wherein: TA—was overall radioactivity in the presence of radioligand only, CA—was radioactivity in the presence of radioligand and tested compound and NA—was radioactivity in the presence of radioligand and Serotonin (5 μM).
# T1 sequence (P50406 whole entry): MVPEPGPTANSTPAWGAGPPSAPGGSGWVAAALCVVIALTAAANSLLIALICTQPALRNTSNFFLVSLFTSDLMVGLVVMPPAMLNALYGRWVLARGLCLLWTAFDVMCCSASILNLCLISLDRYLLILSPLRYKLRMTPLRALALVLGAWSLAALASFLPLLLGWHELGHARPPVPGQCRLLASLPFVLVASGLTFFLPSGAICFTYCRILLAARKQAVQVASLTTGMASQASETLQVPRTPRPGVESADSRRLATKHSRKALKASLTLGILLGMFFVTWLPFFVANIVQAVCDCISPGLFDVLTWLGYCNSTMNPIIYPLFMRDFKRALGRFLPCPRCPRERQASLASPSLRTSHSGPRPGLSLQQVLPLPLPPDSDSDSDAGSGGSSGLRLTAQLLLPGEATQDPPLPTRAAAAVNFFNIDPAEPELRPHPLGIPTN
IC50 (5-HT6 receptor [2]),IC50 (5-HT6 receptor [5]),SMILES,"effect on amnesia caused by Scopolamine (latent period, light arm stay, dark arm entries) (male mice of BALB/c line [1])","effect on amnesia caused by MK-801 (latent period, light arm stay, dark arm entries) (mice)","effect on amnesia caused by Scopolamine (latent period, light arm stay, dark arm entries) (male rats)",prevention of Scopolamine-disturbed novel object recognition (male mice of SHK line),"effect on amnesia caused by MK-801 (latent period, light arm stay, dark arm entries) (rats)",effect on Apomorphine-disturbed prepulse inhibition of startle (Mice of SHK line),"antidepressant activity, immobility during the final 5 minutes in Porsolt's test (male mice of BALB/c line [3])","antidepressant activity, immobility in tail suspension test (male mice of BALB/c line [4])"
–,–,Cc1cc(C)n2nc([S+](C)[O-])c(S(=O)(=O)c3ccccc3)c2n1 (stereo not drawn) [1(1)],decrease amnesia,decrease amnesia caused by MK-801,–,–,–,–,–,–
177 nM,–,"CSc1nn2c(C)cc(CO)nc2c1S(=O)(=O)c1ccccc1 [1.1.7(1), 5-(hydroxymethyl)-7-methyl-2-methylsulfanyl-3-phenylsulfonyl-pyrazolo[1,5-a]pyrimidine]",–,decrease amnesia caused by MK-801,–,–,–,–,–,–
19 nM,0.88 nM,"CNc1nn2c(C)cc(CO)nc2c1S(=O)(=O)c1ccccc1 [1.2.7(1), 5-(hydroxymethyl)-7-methyl-2-methylamino-3-phenylsulfonyl-pyrazolo[1,5-a]pyrimidine]",–,–,decrease amnesia,prevent memory impairment caused by Scopolamine,decrease amnesia caused by MK-801,prevented disturbance of prepulse inhibition of startle caused by Apomorphine,exhibits antidepressant activity,antidepressant activity comparable with the activity of Fluoxetine and Desipramine
